How the values were obtained:
[1] = tested on: CCL2 mRNA level in HEK-293T cells; conditions: human
female C57BL/6 mice = assay: Protein expression efficiency of fLuc mRNA-LNPs after intramuscular injection (IVIS whole-body luminescence); format: in vivo; conditions: for Total flux 1 hour / Total flux 3 hours / Total flux 6 hours / Total flux 48 hours / Total flux 72 hours / Total flux: fLuc mRNA-LNP, intramuscular injection, luminescence at injection site, mice; for Total flux 1 hour: 1 hour after administration; for Total flux 3 hours: 3 hours after administration; for Total flux 6 hours: 6 hours after administration; for Total flux 48 hours: 48 hours after administration; for Total flux 72 hours: 72 hours after administration; for Total flux: after administration; for Fold increase in total flux at 3 h, MC3: relative to control LNP formulated with MC3; for Fold increase in total flux at 3 h, MC3 / Fold increase in total flux at 3 h, SM-102: 3 hours after intramuscular injection; for Fold increase in total flux at 3 h, SM-102: relative to control LNP formulated with SM-102
Description: fLuc mRNA-LNPs formulated using various ionizable lipids were prepared according to the method described in Example 27 and administered in vivo via intramuscular (I. M.) or intravenous (IV.) injection to compare the resulting protein expression efficiency in vivo. As a control, EGFP mRNA-LNPs formulated with commercially available ionizable lipids MC3 or SM-102 were used. All mRNA-LNPs were administered at equal mRNA doses per body weight across different concentration groups (n≥4).
Specifically, the dose of mRNA-LNPs was adjusted to 0.1-0.5 mg/kg of body weight, and the formulation was administered via I.M. or I.V. injection to female C57BL/6 mice (6-10 weeks old, Orient Bio, Korea) Subsequently, […], whole-body luminescence images were acquired using an in vivo imaging system (IVIS Lumina III, PerkinElmer, Walzam, MA, USA). To assess protein expression levels, 200 μL of D-luciferin (15 mg/mL) was administered via intraperitoneal (I.P.) injection 10 minutes prior to imaging. During image acquisition, the animals were anesthetized by inhalation of 3% isoflurane in 97% medical grade oxygen. In addition, the acquired luminescence images were quantitatively analyzed using imaging software (Living Image Software Version 4.4; PerkinElmer, USA).
After intramuscular injection of the fLuc mRNA-LNPs, the luminescence intensity at the injection site was measured over time.
Furthermore, the luminescence intensity at the injection site 3 hours after intramuscular injection was measured, and the relative protein expression efficiency was compared to that of control LNPs formulated with MC3 or SM-102.

[2] = mRNA encapsulation efficiency (Quant-IT RiboGreen RNA assay); format: physicochemical; conditions: mRNA encapsulation efficiency of mRNA-LNP made with the ionizable lipid; average of two measurements
Description: The mRNA encapsulation efficiency (EE, %) of LNPs containing mRNA was measured using the Quant-IT™ RiboGreen® RNA assay kit (Invitrogen, USA).
The diluted samples were added to each well of a 96-well plate. Group A (without Triton X-100) was supplemented with 50 μL of 1×TE buffer, while Group B (with Triton X-100) was supplemented with 50 μL of 1×TE buffer containing 2% Triton-X 100. To release the encapsulated mRNA, the LNPs were treated with Triton-X 100 and incubated at 37° C. for 10 minutes. Subsequently, 100 μL of ribogreen reagent was added to each well. The fluorescence intensities of Group A and Group B were measured using a multi-plate reader (λex 480 nm, λem 520 nm), and mRNA encapsulation efficiency (%) was calculated using Equation 1 below. The encapsulation efficiency for each LNP was determined as the average of two independent measurements.

[3] = tested on: IL-6 mRNA level in HEK-293T cells; conditions: human
[4] = tested on: IL-1β mRNA level in HEK-293T cells; conditions: human
[5] = Size, polydispersity index and surface charge of mRNA-LNP (Malvern Zetasizer Nano ZS90); format: physicochemical; conditions: for PDI / size (nm) Number: mRNA-LNP made with the ionizable lipid at its optimal formulation (Table 2); for size (nm) Number: diluted with PBS to 1 μg/mL mRNA; for Zeta (mV): surface charge of mRNA-LNP made with the ionizable lipid at its optimal formulation (Table 2)
Description: Each mRNA-LNPs produced in Example 27 was diluted with PBS to a final mRNA concentration of 1 μg/mL. The size, polydispersity index (PDI), and surface charge of the mRNA-LNPs were then measured using a Malvern Zetasizer Nano ZS90 (Malvern Instruments, UK).
For particles intended for systemic administration, such as via blood vessels, the particle size must be less than 200 nm in order to pass through the endothelial capillaries of the liver. In addition, the size distribution is considered uniform only when the PDI is 0.3 or less, which enables consistent and efficient therapeutic effects (Non-patent document 3 [Danaei, M. et al). Pharmaceutics 2018, 10, 57]).

[6] = tested on: CCL3 mRNA level in HEK-293T cells; conditions: human
[7] = Stability of mRNA-LNPs according to storage temperature and duration; format: physicochemical; conditions: for Normalized EE % D-1 / Size (nm) D-1 / PDI D-1: day 1; for Normalized EE % D-7 / PDI D-7 / Size (nm) D-7: day 7; for Normalized EE % D-30 / PDI D-30 / Size (nm) D-30: day 30
Description: Stability of fLuc mRNA-LNPs produced using various ionizable lipids according to the method of Example 27, was assessed by storing the LNPs at 4° C. and 25° C. At 1, 7, and 30 days post-manufacture, the size, PDI, and encapsulation efficiency (EE) of each mRNA-LNPs samples were measured using the methods described in Experimental Examples 2 and 3.

SMILES | Total flux 1 hour (female C57BL/6 mice) | Total flux 3 hours (female C57BL/6 mice) | Total flux 6 hours (female C57BL/6 mice) | Total flux 48 hours (female C57BL/6 mice) | Total flux 72 hours (female C57BL/6 mice) | Total flux (female C57BL/6 mice) | Fold increase in total flux at 3 h, MC3 (female C57BL/6 mice) | Fold increase in total flux at 3 h, SM-102 (female C57BL/6 mice) | EE (%) [2] | PDI [5] | size (nm) Number [5] | Zeta (mV) [5] | Normalized EE % D-1 ([7]; fLuc mRNA-LNP stored at 4° C.) | Size (nm) D-1 ([7]; fLuc mRNA-LNP stored at 4° C.) | Normalized EE % D-7 ([7]; fLuc mRNA-LNP stored at 4° C.) | PDI D-7 ([7]; fLuc mRNA-LNP stored at 4° C.) | Size (nm) D-7 ([7]; fLuc mRNA-LNP stored at 4° C.) | Normalized EE % D-30 ([7]; fLuc mRNA-LNP stored at 4° C.) | PDI D-30 ([7]; fLuc mRNA-LNP stored at 4° C.) | Size (nm) D-30 ([7]; fLuc mRNA-LNP stored at 4° C.) | other results
CCCCCCCCCCCOC(=O)CCCCCN(CCCCCCCC(=O)OC(CCCCCCCC)CCCCCCCC)CC(O)CCCCNC(=O)c1[nH]ccc1O (stereo not drawn) [Compound 21, Heptadecan-9-yl 8-((2-hydroxy-6-(3-hydroxy-1H-pyrrole-2-carboxamido)hexyl)(6-oxo-6-(undecyloxy)hexyl)amino)octanoate] | 1.98E+07 | 1.29E+08 | 9.56E+07 | 3.51E+06 | 1.66E+06 | 1.25E+07 | 10.42 | 1.14 | 92% | 0.155 | 112 nm | −4.55 mV |  |  |  |  |  |  |  |  | CCL2 Average [1]: 0.63; protein expression compared to the control group (SM-102) (female C57BL/6 mice; 3 hours post intramuscular injection, in words): significantly higher protein expression; IL-6 Average [3]: 1.39; IL-1β Average [4]: 1.18; CCL3 Average [6]: 1.82
CCCCCCCCCCCOC(=O)CCCCCN(CCCCCCCC(=O)OC(CCCCCCCC)CCCCCCCC)CC(O)CCCCNC(=O)c1cccn1C (stereo not drawn) [Compound 18, Heptadecan-9-yl 8-((2-hydroxy-6-(1-methyl-1H-pyrrole-2-carboxamido)hexyl) (6-oxo-6-(undecyloxy)hexyl)amino)octanoate] | 1.63E+06 | 7.75E+06 | 1.56E+07 | 1.54E+05 | 1.96E+05 | 1.70E+06 | 0.63 | 0.07 | 88% | 0.145 | 125 nm | −1.04 mV | 88.0% | 124.6 nm | 85.3% | 0.064 | 121.4 nm | 87.6% | 0.106 | 126.6 nm | Normalized EE % D-1 ([7]; fLuc mRNA-LNP stored at 25° C.): 88.0%; PDI D-1 ([7]; fLuc mRNA-LNP stored at 25° C.): 0.145; Size (nm) D-1 ([7]; fLuc mRNA-LNP stored at 25° C.): 124.6 nm; Normalized EE % D-7 ([7]; fLuc mRNA-LNP stored at 25° C.): 85.6%; PDI D-7 ([7]; fLuc mRNA-LNP stored at 25° C.): 0.016; Size (nm) D-7 ([7]; fLuc mRNA-LNP stored at 25° C.): 126.1 nm; Normalized EE % D-30 ([7]; fLuc mRNA-LNP stored at 25° C.): 87.0%; PDI D-30 ([7]; fLuc mRNA-LNP stored at 25° C.): 0.125; Size (nm) D-30 ([7]; fLuc mRNA-LNP stored at 25° C.): 127.5 nm
CCCCCCCCCCCOC(=O)CCCCCN(CCCCCCCC(=O)OC(CCCCCCCC)CCCCCCCC)CC(O)CCCCNC(=O)c1cnc(O)n1C (stereo not drawn) [Compound 40, Heptadecan-9-yl 8-((2-hydroxy-6-(2-hydroxy-1-methyl-1H-imidazole-5-carboxamido)hexyl)(6-oxo-6-(undecyloxy)hexyl)amino)octanoate] | 7.92E+06 | 1.50E+07 | 6.60E+06 | 1.10E+06 | 8.29E+05 | 6.46E+05 | 1.22 | 0.13 | 92% | 0.154 | 107 nm | −1.73 mV | 92.3% | 106.8 nm | 89.0% | 0.106 | 155.6 nm | 87.5% | 0.044 | 146.2 nm | Normalized EE % D-1 ([7]; fLuc mRNA-LNP stored at 25° C.): 92.3%; PDI D-1 ([7]; fLuc mRNA-LNP stored at 25° C.): 0.154; Size (nm) D-1 ([7]; fLuc mRNA-LNP stored at 25° C.): 106.8 nm; Normalized EE % D-7 ([7]; fLuc mRNA-LNP stored at 25° C.): 90.9%; PDI D-7 ([7]; fLuc mRNA-LNP stored at 25° C.): 0.112; Size (nm) D-7 ([7]; fLuc mRNA-LNP stored at 25° C.): 146.8 nm; Normalized EE % D-30 ([7]; fLuc mRNA-LNP stored at 25° C.): 89.3%; PDI D-30 ([7]; fLuc mRNA-LNP stored at 25° C.): 0.091; Size (nm) D-30 ([7]; fLuc mRNA-LNP stored at 25° C.): 144.8 nm
